Consider two compounds from patent publication US20130310256A1, “HERBICIDAL COMPOSITIONS COMPRISING 4-AMINO-3-CHLORO-5-FLUORO-6-(4-CHLORO-2-FLUORO-3-METHOXYPHENYL) PYRIDINE-2-CARBOXYLIC ACID OR A DERIVATIVE THEREOF AND VLCFA AND LIPID SYNTHESIS INHIBITING HERBICIDES” (DOW AGROSCIENCES LLC, priority 2008, published 2013).

The subject of one experiment is LEFCH. Description: Example I: postemergence foliar-applied weed control, greenhouse. To be noted: foliar. In kind it is in vivo, Leptochloa chinensis (L.) Nees (Chinese sprangletop). An excerpt:
(§1) Seeds or nutlets of the desired test plant species were planted in a soil matrix prepared by mixing a loam or sandy loam soil (e.g., 28.6 percent silt, 18.8 percent clay, and 52.6 percent sand, with a pH of about 5.8 and an organic matter content of about 1.8 percent) and calcareous grit in an 80 to 20 ratio. The soil matrix was contained in plastic pots with a volume of 1 quart and a surface area of 83.6 square centimeters (cm^2). When required to ensure good germination and healthy plants, a fungicide treatment and/or other chemical or physical treatment was applied. The plants were grown for 8-22 days in a greenhouse with an approximate 14 hr photoperiod which was maintained at about 29° C. during the day and 26° C. during the night. Nutrients (Peters Excel® 15-5-15 5-Ca 2-Mg and iron chelate) were applied in the irrigation solution as needed and water was added on a regular basis. Supplemental lighting was provided with overhead metal halide 1000-Watt lamps as necessary. The plants were employed for testing when they reached the first through fourth true leaf stage.
(§2) Treatments consisted of the acid or esters of 4-amino-3-chloro-5-fluoro-6-(4-chloro-2-fluoro-3-methoxy-phenyl)pyridine-2-carboxylic acid (Compound A), each formulated as an SC (suspension concentrate), and various herbicidal components alone and in combination. Forms of compound A were applied on an acid equivalent basis.
(§3) Other herbicidal components were applied on an active ingredient basis and included very long chain fatty acid (VLCFA) synthesis-inhibiting and fatty acid/lipid synthesis-inhibiting herbicides acetochlor (technical grade material), acetochlor+dichlormid formulated as Topnotch®, pretilachlor (technical grade material), butachlor formulated as Butachlor EC, fentrazamide formulated as Fentrazamide EC, thiobencarb formulated as Bolero® 8EC, cafenstrole formulated as Himeadow® WP or Lapost® Flowable, benfuresate formulated as Full Shot®, dimethenamid-P formulated as Outlook®, indanofan (technical grade material), flufenacet formulated as Define® DF, mefenacet (technical grade material), S-metolachlor formulated as Dual® II Magnum, pethoxamid formulated as Successor® 600, and pyroxasulfone (technical grade material).
(§4) Treatment requirements were calculated based upon the rates being tested, the concentration of active ingredient or acid equivalent in the formulation, and a 12 mL application volume at a rate of 187 L/ha.
(§5) For treatments comprised of formulated compounds, measured amounts of compounds were placed individually in 25 mL glass vials and diluted in a volume of 1.25% (v/v) Agri-Dex® crop oil concentrated to obtain 12× stock solutions. […] Application solutions were prepared by adding an appropriate amount of each stock solution (e.g., 1 mL) and diluted to the appropriate final concentrations with the addition of 10 mL of an aqueous mixture of 1.25% (v/v) crop oil concentrate so that the final spray solutions contained 1.25+/−0.05% (v/v) crop oil concentrate.
(§6) For treatments comprised of technical compounds, weighed amounts can be placed individually in 25 mL glass vials and dissolved in a volume of 97:3 v/v acetone/DMSO to obtain 12× stock solutions. […] Application solutions can be prepared by adding an appropriate amount of each stock solution (e.g., 1 mL) and diluted to the appropriate final concentrations with the addition of 10 mL of an aqueous mixture of 1.5% (v/v) crop oil concentrate so that the final spray solutions contain 1.25% (v/v) crop oil concentrate. When technical materials are used, the concentrated stock solutions can be added to the spray solutions so that the final acetone and DMSO concentrations of the application solutions are […], respectively. […]

For a further experiment, the system named is CYPIR. Described as above. Format: in vivo, Cyperus iria L. (rice flatsedge). To be noted: foliar.
Description: as §1, §2, §3, §4, §5, §6

In the next experiment the test system is CYPES. Described as above. Format: in vivo, Cyperus esculentus L. (yellow nutsedge).
For another experiment, the system named is ECHCG. The experiment is described as above. Format: in vivo, Echinochloa crus-galli (L.) Beauv. (barnyardgrass). To be noted: foliar.
Description: as §1, §2, §3, §4, §5, §6

The subject of another experiment is IPOHE. Description: Example IV: pre-emergence soil-applied weed control, greenhouse. In kind it is in vivo, Ipomoea hederacea Jacq. (ivyleaf morningglory). To be noted: 28 DAA.
Description: Seeds or nutlets of the desired test plant species were planted in a soil matrix prepared by mixing a loam soil (32 percent silt, 23 percent clay, and 45 percent sand, with a pH of about 6.5 and an organic matter content of about 1.9 percent) and calcareous grit in an 80 to 20 ratio. The soil matrix was contained in plastic pots with a volume of 1 quart and a surface area of 83.6 square centimeters (cm^2).
Treatments consisted of the benzyl ester of 4-amino-3-chloro-5-fluoro-6-(4-chloro-2-fluoro-3-methoxy-phenyl)pyridine-2-carboxylic acid (compound A) formulated as an SC (suspension concentrate) and various herbicidal components alone and in combination. Forms of compound A were applied on an acid equivalent basis.
Other herbicidal components were applied on an active ingredient basis and included very long chain fatty acid (VLCFA) synthesis-inhibiting and fatty acid/lipid synthesis-inhibiting herbicides alachlor (technical grade material), dimethenamid-P formulated as Outlook®, and S-metolachlor formulated as Dual® II Magnum.
as §4
For treatments comprised of formulated compounds, measured amounts of compounds were placed individually in 25 mL glass vials and diluted in a volume of 1.25% (v/v) Agri-Dex® crop oil concentrate (COC) to obtain 12× stock solutions. […] Application solutions were prepared by adding an appropriate amount of each stock solution (e.g., 1 mL) and diluted to the appropriate final concentrations with the addition of 10 mL of an aqueous mixture of 1.25% (v/v) COC so that the final spray solutions contained 1.25% (v/v) COC.
For treatments comprised of technical compounds, weighed amounts can be placed individually in 25 mL glass vials and dissolved in a volume of 97:3 (v/v) acetone/DMSO to obtain 12× stock solutions. […] Application solutions can be prepared by adding an appropriate amount of each stock solution (e.g., 1 mL) and diluted to the appropriate final concentrations with the addition of 10 mL of an aqueous mixture of 1.5% (v/v) COC so that the final spray solutions contain 1.25% (v/v) COC. When technical materials are used, the concentrated stock solutions can be added to the spray solutions so that the final acetone and DMSO concentrations of the application solutions are 16.2% and 0.5%, respectively.
For treatments comprised of formulated and technical compounds, weighed amounts of the technical materials were placed individually in 25 mL glass vials and dissolved in a volume of 97:3 (v/v) acetone/DMSO to obtain 12× stock solutions, and measured amounts of the formulated compounds were placed individually in 25 mL glass vials and diluted in a volume of 1.5% (v/v) COC or water to obtain 12× stock solutions. […] Application solutions were prepared by adding an appropriate amount of each stock solution (e.g., 1 mL) and diluted to the appropriate final concentrations with the addition of an appropriate amount of an aqueous mixture of 1.5% (v/v) COC so that the final spray solutions contained 1.25% (v/v) COC. As required, additional water and/or 97:3 (v/v) acetone/DMSO was added to individual application solutions so that the final acetone and DMSO concentrations of the application solutions being compared were 8.1% and 0.25%, respectively.
All stock solutions and applications solutions were visually inspected for compound compatibility prior to application. Spray solutions were applied to the soil with an overhead Mandel track sprayer equipped with a 8002E nozzles calibrated to deliver 187 L/ha over an application area of 0.503 m^2 at a spray height of 18 inches (46 cm) above average pot height. Control pots were sprayed in the same manner with the solvent blank.
The treated and control pots were placed in a greenhouse and top watered as needed. […]

Regarding `CCOCCN(C(=O)CCl)C(=C(C)C)c1ccccc1` [Pethoxamid, 2-Chloro-N-(2-ethoxyethyl)-N-(2-methyl-1-phenyl-1-propen-1-yl)acetamide], the “Visual Weed Control (%) - 21 DAA LEFCH Obs” value with LEFCH (305 gai/ha) and in the experiment on LEFCH (610 gai/ha) was 10% throughout. Moreover, the “Visual Weed Control (%) - 21 DAA CYPIR Obs” value in the experiment with CYPIR (305 gai/ha) was 40%; with CYPIR (610 gai/ha) it was 80%; with CYPIR (1220 gai/ha), 85%. The “Visual Weed Control (%) - 21 DAA CYPES Obs” value with CYPES (305 gai/ha) was 0%; with CYPES (610 gai/ha) it was 25%; in the experiment on CYPES (1220 gai/ha), 65%.
Regarding `CCc1cccc(C)c1N(C(=O)CCl)C(C)COC` (stereo not shown) [S-Metolachlor], the figures for the “Visual Weed Control (%) - 20 DAA ECHCG Obs” value with ECHCG (387.5 gai/ha) and in the experiment with ECHCG (775 gai/ha) were 20% and 55%, respectively. The “Visual Weed Control IPOHE Obs” value in the experiment on IPOHE (387.5 gai/ha) was found to be 25%; in the experiment with IPOHE (775 gai/ha), 0%; in the experiment with IPOHE (1550 gai/ha), 33%.
